In article PMC10185560, “Turn air-captured CO2 with methanol into amino acid and pyruvate in an ATP/NAD(P)H-free chemoenzymatic system” (Nature Communications, 2023):

Experiments:
L protein = target: T1, L protein (Escherichia coli, UniProt P0A9P0); experiment: NADH formation at […] nm; format: biochemical
T1 construct: gene lpdA
T1 sequence (P0A9P0 2-474): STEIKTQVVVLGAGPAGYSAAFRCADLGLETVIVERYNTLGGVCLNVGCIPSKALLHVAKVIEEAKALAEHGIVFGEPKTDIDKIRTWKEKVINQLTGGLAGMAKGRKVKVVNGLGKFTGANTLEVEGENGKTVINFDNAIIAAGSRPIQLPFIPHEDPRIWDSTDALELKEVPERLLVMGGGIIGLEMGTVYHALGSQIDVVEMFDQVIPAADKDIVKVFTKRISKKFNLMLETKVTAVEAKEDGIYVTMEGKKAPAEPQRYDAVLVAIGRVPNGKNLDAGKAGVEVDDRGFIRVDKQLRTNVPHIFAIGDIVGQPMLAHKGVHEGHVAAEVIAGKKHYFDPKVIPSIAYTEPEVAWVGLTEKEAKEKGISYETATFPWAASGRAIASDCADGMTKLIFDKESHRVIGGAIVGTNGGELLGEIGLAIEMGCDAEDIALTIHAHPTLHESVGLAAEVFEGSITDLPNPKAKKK

LpLSD = target: T2, LpLSD (Legionella pneumophila, UniProt Q5ZXE1); settings: freshly made enzyme
T2 construct: gene sda-2
T2 sequence (Q5ZXE1 1-458): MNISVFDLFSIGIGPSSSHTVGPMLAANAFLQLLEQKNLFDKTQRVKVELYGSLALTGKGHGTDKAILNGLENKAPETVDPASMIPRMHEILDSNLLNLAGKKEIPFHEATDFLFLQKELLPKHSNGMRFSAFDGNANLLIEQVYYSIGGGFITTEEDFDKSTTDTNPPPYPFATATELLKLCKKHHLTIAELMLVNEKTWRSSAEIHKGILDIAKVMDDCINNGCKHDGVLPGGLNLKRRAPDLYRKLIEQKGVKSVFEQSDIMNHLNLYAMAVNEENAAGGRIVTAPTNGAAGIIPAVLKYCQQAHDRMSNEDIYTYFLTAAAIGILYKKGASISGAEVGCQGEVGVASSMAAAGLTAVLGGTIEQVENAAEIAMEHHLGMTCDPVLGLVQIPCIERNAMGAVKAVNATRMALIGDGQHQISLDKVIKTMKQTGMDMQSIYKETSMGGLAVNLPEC

MsLSD = target: T3, MsLSD (Mycolicibacterium smegmatis, UniProt A0QY48); experiment: residual serine dehydratase activity; format: biochemical; settings: 75% loss printed at 20 mM, reactive inactivator
T3 construct: gene MSMEG_3532; described as PLP-dependent
T3 sequence (A0QY48 1-316): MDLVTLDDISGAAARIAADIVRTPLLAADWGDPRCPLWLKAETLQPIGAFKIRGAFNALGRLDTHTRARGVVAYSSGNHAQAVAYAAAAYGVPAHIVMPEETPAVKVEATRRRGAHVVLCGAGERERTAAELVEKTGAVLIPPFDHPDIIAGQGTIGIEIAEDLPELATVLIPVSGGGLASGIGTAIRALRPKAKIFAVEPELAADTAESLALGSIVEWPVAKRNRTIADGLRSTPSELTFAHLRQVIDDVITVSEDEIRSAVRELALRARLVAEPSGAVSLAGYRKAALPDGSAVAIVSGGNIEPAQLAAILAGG

Structure (SMILES): NC(=O)c1ccc[n+]([C@@H]2O[C@H](COP(=O)(O)OP(=O)(O)OC[C@H]3O[C@@H](n4cnc5c(N)ncnc54)[C@H](O)[C@@H]3O)[C@@H](O)[C@H]2O)c1 [NAD^+]
- NADH formation at 340 nm (L protein): Hred was then re-oxidized by L-protein in the presence of NAD^+

Structure (SMILES): N[C@@H](CO)C(=O)O [serine]
- pyruvate formation by HPLC (LpLSD): The fresh-made LpLSD enzyme showed similar activities

Structure (SMILES): C=O [formaldehyde]
- activity loss at 10 mM formaldehyde (MsLSD): ~ 50%
